Reference: ChEMBL document CHEMBL6178017, “Intercepting the Downstream of the Estrogen Receptor Signaling Pathway: Discovery of a Potent and Efficient SRC-3 PROTAC Degrader for Overcoming Endocrine Resistance Breast Cancer” (J Med Chem, 2025)
Active and inactive are the calls of the source. The calls are words filed in the database; no cut-off is given here.

Columns and labels:
[1] = system: MCF7; assay: Induction of cell cycle arrest in human MCF7 cells assessed as accumulation of cells at G1 phase at 5 to 20 uM incubated for 48 hrs by propidium iodide staining based flow cytometry; type: functional; settings: dose 5-20 µM
[2] = target: T1, Protein cereblon/Nuclear receptor coactivator 3 (Homo sapiens, UniProt Q9Y6Q9+Q96SW2); assay: PROTAC activity at CRBN/SRC-3 in human MCF7 cells harboring ER-alpha Y537S mutant assessed as downregulation of ER-alpha level at 0.01 to 10 uM measured after 36 hrs by immunoblot analysis; type: cell-based; settings: dose 0.01-10 µM
T1 sequence (Q96SW2 whole entry partner): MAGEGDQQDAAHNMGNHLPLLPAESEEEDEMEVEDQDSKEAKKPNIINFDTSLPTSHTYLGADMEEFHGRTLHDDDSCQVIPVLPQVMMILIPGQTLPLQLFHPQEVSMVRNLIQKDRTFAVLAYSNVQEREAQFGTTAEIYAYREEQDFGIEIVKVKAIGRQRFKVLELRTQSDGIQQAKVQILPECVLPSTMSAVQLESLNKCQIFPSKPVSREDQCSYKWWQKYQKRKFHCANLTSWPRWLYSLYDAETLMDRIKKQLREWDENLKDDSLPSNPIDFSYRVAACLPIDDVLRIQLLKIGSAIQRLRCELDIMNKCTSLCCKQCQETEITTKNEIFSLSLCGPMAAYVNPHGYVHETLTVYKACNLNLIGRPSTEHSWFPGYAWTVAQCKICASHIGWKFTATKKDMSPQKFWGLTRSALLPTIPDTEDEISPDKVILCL
T1 sequence (Q9Y6Q9 2-1424 limits assumed): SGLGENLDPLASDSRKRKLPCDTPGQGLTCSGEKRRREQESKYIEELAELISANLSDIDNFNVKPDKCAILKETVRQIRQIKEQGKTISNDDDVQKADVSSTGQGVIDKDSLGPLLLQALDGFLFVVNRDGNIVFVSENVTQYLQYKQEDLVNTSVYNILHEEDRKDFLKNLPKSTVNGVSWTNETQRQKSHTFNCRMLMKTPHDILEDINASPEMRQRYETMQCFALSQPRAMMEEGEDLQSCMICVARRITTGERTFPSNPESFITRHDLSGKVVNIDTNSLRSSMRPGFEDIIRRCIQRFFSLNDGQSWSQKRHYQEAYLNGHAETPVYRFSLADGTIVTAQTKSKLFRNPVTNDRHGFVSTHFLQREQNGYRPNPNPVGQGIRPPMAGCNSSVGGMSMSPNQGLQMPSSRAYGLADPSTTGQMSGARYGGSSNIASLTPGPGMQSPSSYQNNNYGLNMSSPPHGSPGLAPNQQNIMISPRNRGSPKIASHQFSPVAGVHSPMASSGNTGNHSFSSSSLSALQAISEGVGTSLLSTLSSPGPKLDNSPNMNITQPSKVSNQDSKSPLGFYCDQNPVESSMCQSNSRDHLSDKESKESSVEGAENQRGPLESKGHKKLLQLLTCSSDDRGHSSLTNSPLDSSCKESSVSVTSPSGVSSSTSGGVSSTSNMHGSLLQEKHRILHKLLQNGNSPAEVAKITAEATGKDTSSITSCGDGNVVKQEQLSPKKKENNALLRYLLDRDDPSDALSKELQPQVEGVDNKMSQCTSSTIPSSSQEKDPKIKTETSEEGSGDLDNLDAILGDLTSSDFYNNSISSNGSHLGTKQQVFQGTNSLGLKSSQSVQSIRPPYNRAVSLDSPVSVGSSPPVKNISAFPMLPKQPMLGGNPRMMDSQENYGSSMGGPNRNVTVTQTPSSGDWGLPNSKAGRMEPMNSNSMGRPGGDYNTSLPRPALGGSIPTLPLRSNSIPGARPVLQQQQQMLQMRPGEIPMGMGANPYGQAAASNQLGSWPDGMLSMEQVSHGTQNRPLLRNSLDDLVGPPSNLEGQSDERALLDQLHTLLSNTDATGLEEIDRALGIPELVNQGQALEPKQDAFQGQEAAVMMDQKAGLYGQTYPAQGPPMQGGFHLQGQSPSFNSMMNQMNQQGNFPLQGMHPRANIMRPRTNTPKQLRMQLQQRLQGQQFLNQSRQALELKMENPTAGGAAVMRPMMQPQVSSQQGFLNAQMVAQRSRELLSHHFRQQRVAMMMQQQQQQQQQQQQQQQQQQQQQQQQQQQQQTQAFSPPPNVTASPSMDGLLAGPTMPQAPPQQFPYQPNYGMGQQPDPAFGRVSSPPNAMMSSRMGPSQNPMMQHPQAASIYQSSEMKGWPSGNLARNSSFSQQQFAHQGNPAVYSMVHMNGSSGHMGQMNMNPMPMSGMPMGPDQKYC

[3] = target: T1, Protein cereblon/Nuclear receptor coactivator 3; assay: PROTAC activity at CRBN/SRC-3 in tamoxifen-resistant human LCC2 cells assessed as induction of SRC-3 degradation at 1 uM preincubated with proteasome inhibitor, bortezomib for 2 hrs followed by incubation with compound and measured after 36 hrs by immunoblot analysis; type: cell-based; settings: Tamoxifen-resistant LCC2 cell
[4] = Induction of apoptosis in tamoxifen-resistant human LCC2 cells assessed as late apoptotic cells at 1 uM incubated for 48 hrs by AnnexinV-FITC/PI staining based flow cytometry (reference value: 4.83%); type: functional, Tamoxifen-resistant LCC2 cell
[5] = Half life in human liver microsomes in presence of NADPH by LC-MS/MS analysis; type: ADME, Microsome
[6] = Hepatic clearance in human liver microsomes in presence of NADPH by LC-MS/MS analysis; type: ADME, Microsome
[7] = Induction of cell cycle arrest in tamoxifen-resistant human LCC2 cells assessed as accumulation of cells at S phase at 10 uM incubated for 48 hrs by propidium iodide staining based flow cytometry (reference value: 9.72%); type: functional
[8] = Intrinsic clearance in human liver microsomes in presence of NADPH by LC-MS/MS analysis; type: ADME, Microsome; settings: read-out: CLH
[9] = AUC (0 to infinity) in Balb/c mouse at 20 mg/kg, po by LC-MS/MS analysis; type: ADME, organism-based; settings: in vivo
[10] = Cmax in Balb/c mouse at 20 mg/kg, po by LC-MS/MS analysis; type: ADME, organism-based; settings: in vivo
[11] = Half life of the compound in human plasma by LC-MS/MS analysis; type: ADME, cell-free
[12] = Toxicity against Balb/c mouse xenografted with tamoxifen-resistant human LCC2 cells assessed as effect on body weight at 3 to 5 uM/Kg, ip administered once every 2 days for 23 days; type: organism-based; settings: in vivo, 552 h, dose 3-5 µM/Kg, time 23 day
[13] = system: Mus musculus; assay: In vivo PROTAC activity at CRBN/SRC-3 in Balb/c mouse xenografted with tamoxifen-resistant human LCC2 cells assessed as induction of SRC-3 degradation in tumor tissues at 3 uM/Kg, ip administered once every 2 days for 23 days and measured on day 25 by western blot analysis; type: functional, organism-based; settings: time 25.0 day
[14] = Induction of apoptosis in tamoxifen-resistant human LCC2 cells assessed as early apoptotic cells at 1 uM incubated for 48 hrs by AnnexinV-FITC/PI staining based flow cytometry (reference value: 5.92%); type: functional, Tamoxifen-resistant LCC2 cell
[15] = Induction of apoptosis in tamoxifen-resistant human LCC2 cells assessed as necrotic cells at 20 uM incubated for 48 hrs by AnnexinV-FITC/PI staining based flow cytometry (reference value: 1.16%); type: functional, Tamoxifen-resistant LCC2 cell
[16] = target: Cereblon/Ikaros (Homo sapiens) (UniProt Q96SW2+Q13422); assay: PROTAC activity at CRBN/IKZF1 in tamoxifen-resistant human LCC2 cells assessed as degradation of IKZF1 at 10 uM measured after 36 hrs by diaPASEF-based quantitative proteomics analysis; settings: Tamoxifen-resistant LCC2 cell
[17] = target: T1, Protein cereblon/Nuclear receptor coactivator 3; assay: PROTAC activity at CRBN/SRC-3 in human MCF7 cells assessed as induction of SRC-3 degradation at 1 uM preincubated with proteasome inhibitor, MG-132 for 2 hrs followed by incubation with compound and measured after 36 hrs by immunoblot analysis; type: cell-based
[18] = system: Tamoxifen-resistant LCC2 cell; assay: Upregulation of SRC3 mRNA expression in tamoxifen-resistant human LCC2 cells at 0.01 to 10 uM incubated for 36 hrs by qRT-PCR analysis; type: functional, cell-based; settings: dose 0.01-10 µM
[19] = target: T1, Protein cereblon/Nuclear receptor coactivator 3; assay: PROTAC activity at CRBN/SRC-3 in tamoxifen-resistant human LCC2 cells assessed as degradation of ER-alpha by measuring downregulation of ER-alpha protein level at 10 uM measured after 36 hrs by diaPASEF-based quantitative proteomics analysis; settings: Tamoxifen-resistant LCC2 cell
[20] = Antitumor activity against tamoxifen-resistant human LCC2 cells xenografted in Balb/c mouse assessed as inhibition of tumor growth at 5 uM/Kg, ip administered once every 2 days for 23 days; type: functional, Tamoxifen-resistant LCC2 cell; settings: time 23 day, at 5 µmol/kg
[21] = system: Mus musculus; assay: In vivo PROTAC activity at CRBN/SRC-3 in Balb/c mouse xenografted with tamoxifen-resistant human LCC2 cells assessed as induction of SRC-3 degradation in tumor tissues at 5 uM/Kg, ip administered once every 2 days for 23 days and measured on day 25 by western blot analysis; type: functional, organism-based; settings: time 25.0 day
[22] = target: T1, Protein cereblon/Nuclear receptor coactivator 3; assay: PROTAC activity at CRBN/SRC-3 in tamoxifen-resistant human LCC2 cells assessed as induction of SRC-3 degradation at 1 uM incubated for 9 hrs by immunoblot analysis; type: cell-based; settings: Tamoxifen-resistant LCC2 cell
[23] = target: Protein cereblon/Nuclear receptor coactivator 2 (Homo sapiens) (UniProt Q15596+Q96SW2); assay: PROTAC activity at CRBN/SRC-2 in human MCF7 cells assessed as induction of SRC-2 degradation at 0.01 to 10 uM measured after 36 hrs by immunoblot analysis; type: cell-based; settings: dose 0.01-10 µM
Sequence of Protein cereblon/Nuclear receptor coactivator 2 (Homo sapiens) (Q15596 whole entry, looked up): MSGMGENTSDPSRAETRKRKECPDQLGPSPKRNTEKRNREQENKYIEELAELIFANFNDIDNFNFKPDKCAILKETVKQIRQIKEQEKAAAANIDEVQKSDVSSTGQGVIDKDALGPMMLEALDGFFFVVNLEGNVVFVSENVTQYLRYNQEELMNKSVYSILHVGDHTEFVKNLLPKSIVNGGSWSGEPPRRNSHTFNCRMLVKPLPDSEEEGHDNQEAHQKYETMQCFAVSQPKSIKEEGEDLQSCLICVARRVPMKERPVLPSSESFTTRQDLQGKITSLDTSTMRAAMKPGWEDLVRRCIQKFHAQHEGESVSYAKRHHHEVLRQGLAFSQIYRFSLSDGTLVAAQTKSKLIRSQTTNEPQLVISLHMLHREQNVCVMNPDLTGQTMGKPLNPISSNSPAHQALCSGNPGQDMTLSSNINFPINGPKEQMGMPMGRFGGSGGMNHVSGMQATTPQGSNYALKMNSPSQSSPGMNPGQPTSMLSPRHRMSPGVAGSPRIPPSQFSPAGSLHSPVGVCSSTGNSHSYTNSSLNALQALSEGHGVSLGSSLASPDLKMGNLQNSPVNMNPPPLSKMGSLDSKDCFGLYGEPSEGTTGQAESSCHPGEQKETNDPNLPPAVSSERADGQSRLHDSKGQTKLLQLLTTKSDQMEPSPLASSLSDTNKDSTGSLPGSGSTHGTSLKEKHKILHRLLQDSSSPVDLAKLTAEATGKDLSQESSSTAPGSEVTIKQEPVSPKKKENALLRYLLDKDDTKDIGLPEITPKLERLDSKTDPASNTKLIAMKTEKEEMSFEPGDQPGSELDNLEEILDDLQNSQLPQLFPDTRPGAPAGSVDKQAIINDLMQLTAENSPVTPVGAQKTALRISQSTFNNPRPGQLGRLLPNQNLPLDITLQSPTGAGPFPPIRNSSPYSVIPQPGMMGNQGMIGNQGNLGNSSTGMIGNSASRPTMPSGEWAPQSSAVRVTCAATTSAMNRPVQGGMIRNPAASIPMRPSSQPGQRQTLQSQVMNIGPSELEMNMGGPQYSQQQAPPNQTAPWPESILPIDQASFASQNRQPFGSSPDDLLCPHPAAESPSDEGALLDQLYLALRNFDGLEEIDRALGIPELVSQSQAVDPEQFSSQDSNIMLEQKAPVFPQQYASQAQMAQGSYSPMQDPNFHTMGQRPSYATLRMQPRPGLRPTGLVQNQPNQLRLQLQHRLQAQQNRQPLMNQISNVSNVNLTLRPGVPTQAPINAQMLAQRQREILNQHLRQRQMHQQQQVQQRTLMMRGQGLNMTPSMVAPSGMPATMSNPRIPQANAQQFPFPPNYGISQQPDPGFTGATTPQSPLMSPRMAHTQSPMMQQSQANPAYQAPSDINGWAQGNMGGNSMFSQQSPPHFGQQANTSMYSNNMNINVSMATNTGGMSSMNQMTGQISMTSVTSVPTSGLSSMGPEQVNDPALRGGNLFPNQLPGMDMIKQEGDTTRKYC
Sequence of Protein cereblon/Nuclear receptor coactivator 2 (Homo sapiens) (Q96SW2 whole entry, looked up): as the sequence (Q96SW2 whole entry partner) above

[24] = target: T1, Protein cereblon/Nuclear receptor coactivator 3; assay: PROTAC activity at CRBN/SRC-3 in human MCF7 cells assessed as induction of SRC-3 degradation at 1 uM preincubated with autophagy inhibitor, chloroquine for 2 hrs followed by incubation with compound and measured after 36 hrs by immunoblot analysis; type: cell-based
[25] = Induction of cell cycle arrest in tamoxifen-resistant human LCC2 cells assessed as accumulation of cells at S phase at 5 uM incubated for 48 hrs by propidium iodide staining based flow cytometry (reference value: 9.72%); type: functional
[26] = Induction of cell cycle arrest in tamoxifen-resistant human LCC2 cells assessed as accumulation of cells at G2/M phase at 5 uM incubated for 48 hrs by propidium iodide staining based flow cytometry (reference value: 11.42%); type: functional
[27] = target: T1, Protein cereblon/Nuclear receptor coactivator 3; assay: PROTAC activity at CRBN/SRC-3 in human MCF7 cells overexpressing EGFR assessed as downregulation of ER-alpha level at 0.01 to 10 uM measured after 36 hrs by immunoblot analysis; type: cell-based; settings: dose 0.01-10 µM
[28] = Oral bioavailability in Balb/c mouse at 20 mg/kg by LC-MS/MS analysis; type: ADME, organism-based; settings: in vivo
[29] = Induction of apoptosis in tamoxifen-resistant human LCC2 cells assessed as viable cells at 5 uM incubated for 48 hrs by AnnexinV-FITC/PI staining based flow cytometry (reference value: 88.09%); type: functional; settings: Tamoxifen-resistant LCC2 cell, read-out: Activity
[30] = system: MCF7; assay: Antiproliferative activity against human MCF7 cells harboring ER-alpha D538G mutant assessed as inhibition of cell growth by CCK8 assay; type: functional, cell-based
[31] = target: Protein cereblon/Zinc finger protein Helios (Homo sapiens) (UniProt Q96SW2+Q9UKS7); assay: PROTAC activity at CRBN/IKZF2 in tamoxifen-resistant human LCC2 cells assessed as degradation of IKZF2 at 10 uM measured after 36 hrs by diaPASEF-based quantitative proteomics analysis; settings: Tamoxifen-resistant LCC2 cell
Sequence of Protein cereblon/Zinc finger protein Helios (Homo sapiens) (Q96SW2 whole entry, looked up): as the sequence (Q96SW2 whole entry partner) above
Sequence of Protein cereblon/Zinc finger protein Helios (Homo sapiens) (Q9UKS7 whole entry, looked up): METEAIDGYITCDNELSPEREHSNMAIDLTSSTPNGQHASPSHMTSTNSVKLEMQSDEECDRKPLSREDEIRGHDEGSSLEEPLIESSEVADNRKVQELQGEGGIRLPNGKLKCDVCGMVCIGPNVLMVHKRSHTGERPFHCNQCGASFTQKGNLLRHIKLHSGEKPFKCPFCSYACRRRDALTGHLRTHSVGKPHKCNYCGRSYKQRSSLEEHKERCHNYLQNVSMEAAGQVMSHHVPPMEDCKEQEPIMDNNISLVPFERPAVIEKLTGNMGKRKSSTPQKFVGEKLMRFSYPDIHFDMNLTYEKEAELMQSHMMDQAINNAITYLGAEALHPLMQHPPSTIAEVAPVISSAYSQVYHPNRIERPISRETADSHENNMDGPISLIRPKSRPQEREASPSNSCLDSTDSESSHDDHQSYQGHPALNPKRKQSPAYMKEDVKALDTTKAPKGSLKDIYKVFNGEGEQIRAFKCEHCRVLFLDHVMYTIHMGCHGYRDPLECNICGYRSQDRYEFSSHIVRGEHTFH

## C/C(=N\Nc1nc2ccccc2n1C1CN(C2CCN(c3cccc4c3C(=O)N(C3CCC(=O)NC3=O)C4=O)CC2)C1)c1ccccn1 (stereo unspecified)
[1]
  Activity: Active
[2]
  Activity: Active
[3]
  Activity: inactive
[4]
  Activity: 21.9%
[5]
  half-life: 8.46 min
[6]
  CLhep predicted: 18.7 mL/min/kg
[7]
  Activity: 12.41%
[8]
  CLint scaled: 190 mL/min/kg
[9]
  AUC(0-inf): 58.4 ng·h/mL
[10]
  Cmax: 25.4 ng/mL
[11]
  half-life: 35.6 h
[12]
  Activity: Non-toxic
[13]
  Activity: Active
[14]
  Activity: 17.04%
[15]
  Activity: 10.9%
[16]
  Activity: inactive
[17]
  Activity: inactive
[18]
  Activity: Active
[19]
  Activity: Active
[20]
  TGI: 54%
[21]
  Activity: Active
[22]
  Activity: Active
[23]
  Activity: Active; Minimal Activity Against Src-2 Compared To Src-3 Observed
[24]
  Activity: Active
[25]
  Activity: 14.53%
[26]
  Activity: 4.62%
[27]
  Activity: Active
[28]
  bioavailability: 1%
[29]
  viability at 5 µM: 54.6%
[30]
  IC50: 150 nM
[31]
  Activity: inactive
